One test concerns the target T1, oxytocin receptors (Rattus norvegicus, UniProt P70536).
T1 sequence (P70536 1-388): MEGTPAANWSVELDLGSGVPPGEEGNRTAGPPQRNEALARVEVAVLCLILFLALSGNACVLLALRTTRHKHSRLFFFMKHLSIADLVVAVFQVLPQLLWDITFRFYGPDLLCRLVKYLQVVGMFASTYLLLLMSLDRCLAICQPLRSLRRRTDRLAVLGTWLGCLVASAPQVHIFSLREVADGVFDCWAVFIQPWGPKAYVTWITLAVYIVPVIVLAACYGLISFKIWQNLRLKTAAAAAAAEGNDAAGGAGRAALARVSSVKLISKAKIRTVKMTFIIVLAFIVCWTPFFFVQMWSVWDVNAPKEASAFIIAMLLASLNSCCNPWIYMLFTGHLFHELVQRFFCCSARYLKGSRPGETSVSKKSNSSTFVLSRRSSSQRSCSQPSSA
Kind of test: Oxytocin Receptor Binding. Conditions: for IC50: rat uterine membranes, [3H]oxytocin.

The target of test [1] is T2, Rat Kidney Medullary V2 Receptors (Rattus norvegicus, UniProt Q00788).
T2 construct: Medullary tissues from rat kidneys are dissected out; from tissue; host or cells: rat kidney medulla membranes
T2 sequence (Q00788 whole entry): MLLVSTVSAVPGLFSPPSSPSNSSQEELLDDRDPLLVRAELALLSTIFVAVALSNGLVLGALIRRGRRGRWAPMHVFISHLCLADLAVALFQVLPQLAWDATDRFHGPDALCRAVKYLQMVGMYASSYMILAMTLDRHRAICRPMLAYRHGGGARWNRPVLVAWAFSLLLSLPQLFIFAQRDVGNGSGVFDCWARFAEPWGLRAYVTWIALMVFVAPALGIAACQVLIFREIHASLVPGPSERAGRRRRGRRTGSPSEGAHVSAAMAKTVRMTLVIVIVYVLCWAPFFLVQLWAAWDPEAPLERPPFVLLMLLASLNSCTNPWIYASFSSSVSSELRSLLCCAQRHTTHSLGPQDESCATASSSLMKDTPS
Kind of test: biochemical. The format is binding. How it is done:
Binding Assay to Rat Kidney Medullary V2 Receptors
Medullary tissues from rat kidneys are dissected out, cut into small pieces and soaked in a […] sodium chloride solution containing 1.0 mM EDTA with many changes of the liquid phase, until the solution is clear of blood. The tissue is homogenized in a 0.25M sucrose solution containing 1.0 mM EDTA and 0.1 mM PMSF using a Potter-Elvehjem homogenizer with a teflon pestle. The homogenate is filtered through several layers (4 layers) of cheese cloth. The filtrate is rehomogenized using a dounce homogenizer, with a tight fitting pestle. The final homogenate is centrifuged at 1500×g for 15 min. The nuclear pellet is discarded and the supernatant fluid recentrifuged at 40,000×g for 30 min. The resulting pellet formed contains a dark inner part with the exterior, slightly pink. The pink outer part is suspended in a small amount of 50.0 mM Tris.HCl buffer, pH 7.4. The protein content is determined by the Lowry's method (Lowry et al, J. Biol. Chem., 1953). The membrane suspension is stored at -70° C., in 50.0 mM Tris.HCl, containing 0.2% inactivated BSA and 0.1 mM PMSF in aliquots of 1.0 ml containing 10.0 mg protein per ml of suspension until use in subsequent binding experiments.
For binding experiments, the following is added in μl volume to wells of a 96 well format of a microtiter plate: 100.0 μl of 100.0 mM Tris.HCl buffer containing 0.2% heat inactivated BSA, 10.0 mM MgCl2 and a mixture of protease inhibitors: leupeptin, 1.0 mg %; aprotinin, 1.0 mg %; 1,10-phenanthroline, 2.0 mg %; trypsin inhibitor, 10.0 mg % and 0.1 mM PMSF, 20.0 μl of [^3 H] Arginine^8, vasopressin (S.A. 75.0 Ci/mmole) at 0.8 nM and the reaction initiated by the addition of 80.0 μl of tissue membranes (200.0 μg tissue protein). The plates are left undisturbed on the bench top for 120 min. to reach equilibrium. Non-specific binding is assessed in the presence of 1.0 μM of unlabeled ligand, added in 20 μl volume. For test compounds, these are solubilized in 50% dimethylsulfoxide (DMSO) and added in 20.0 μl volume to a final incubation volume of 200 μl. Upon completion of binding, the content of each well is filtered off, using a Brandel® cell Harvester (Gaithersburg, Md.). The radioactivity trapped on the filter disk by the ligand-receptor complex is assessed by liquid scintillation counting in a Packard LS Counter, with an efficiency of 65% for tritium. The data are analyzed for IC50 values by the LUNDON-2 program for competition (LUNDON SOFTWARE, Ohio).

The target of a further test is Rat Hepatic V1 Receptors (Rattus norvegicus, UniProt P30560). Kind of test: Binding Assay to Rat Hepatic V1 Receptors. Here is the method:
Binding Assay to Rat Hepatic V1 Receptors
Rat liver plasma membranes expressing the vasopressin V1 receptor subtypes are isolated by sucrose density gradient according to the method described by Lesko et al, (1973). These membranes are quickly suspended in 50.0 mM Tris.HCl buffer, pH 7.4, containing 0.2% bovine serum albumin (BSA) and 0.1 mM phenylmethylsulfonylfluoride (PMSF) and kept frozen at -70° C. until used in subsequent binding experiments. For binding experiments, the following is added to the wells of a ninety-six well format microtiter plate: 100 μl of 100.0 mM Tris.HCl buffer containing 10.0 mM MgCl2, 0.2% heat inactivated BSA and a mixture of protease inhibitors: leupeptin, 1.0 mg %; aprotinin, 1.0 mg %; 1,10-phenanthroline,2.0 mg %; trypsin inhibitor, 10.0 mg % and 0.1 mM PMSF, 20.0 μl of [phenylalanyl-3,4,5,-^3 H] vaso-pressin (S.A. 45.1 Ci/mmole) at 0.8 nM, and the reaction initiated by the addition of 80 μl of tissue membranes containing 20 μg of tissue protein. The plates are kept undisturbed on the bench top at room temperature for 120 min. to reach equilibrium. Non-specific samples are assayed in the presence of 0.1 μm of the unlabeled antagonist phenylalanylvasopressin, added in 20.0 μl volume. For test compounds, these are solubilized in 50% dimethylsulfoxide (DMSO) and added in 20.0 μl volume to a final incubation volume of 200 μl. Upon completion of binding, the content of each well is filtered off, using a Brandel® cell Harvester (Gaithersburg, Md.). The radioactivity trapped on the filter disk by the ligand-receptor complex is assessed by liquid scintillation counting in a Packard LS Counter, with an efficiency of 65% for tritium. The data are analyzed for IC50 values by the LUNDON-2 program for competition (LUNDON SOFTWARE, Ohio).

Rat Hepatic V1 Receptors, sequence (P30560 whole entry): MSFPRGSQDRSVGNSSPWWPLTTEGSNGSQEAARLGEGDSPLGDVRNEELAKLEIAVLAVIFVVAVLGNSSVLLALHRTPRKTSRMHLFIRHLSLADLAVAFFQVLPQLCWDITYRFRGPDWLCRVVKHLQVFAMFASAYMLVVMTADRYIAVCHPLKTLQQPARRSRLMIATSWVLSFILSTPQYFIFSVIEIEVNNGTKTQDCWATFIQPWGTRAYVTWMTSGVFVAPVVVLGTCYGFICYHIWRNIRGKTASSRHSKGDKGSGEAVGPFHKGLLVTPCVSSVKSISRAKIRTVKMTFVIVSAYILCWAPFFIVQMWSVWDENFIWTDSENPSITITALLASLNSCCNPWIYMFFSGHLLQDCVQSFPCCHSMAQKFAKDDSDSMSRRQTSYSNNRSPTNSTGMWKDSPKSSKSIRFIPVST
Procedure for oxytocin receptors: Female Sprague-Dawley rats weighing approximately 200-250 g are injected intramuscularly (i.m.) with 0.3 mg/kg of body weight of diethylstilbestrol (DES). The rats are sacrificed 18 hours later under pentobarbital anesthesia. The uteri are dissected out, cleaned of fat and connective tissues and rinsed in 50 ml of normal saline. The tissue pooled from six rats is homogenized in 50 ml of 0.01 mM Tris.HCl, containing 0.5 mM dithiothreitol and 1.0 mM EDTA, adjusted to pH 7.4, using a polytron at setting 6 with three passes of 10 sec each. The homogenate is passed through two (2) layers of cheesecloth and the filtrate centrifuged at 1000×g for 10 min. The clear supernatant is removed and recentrifuged at 165,000×g for 30 min. The resulting pellet containing the oxytocin receptors is resuspended in 50.0 mM Tris.HCl containing 5.0 mM MgCl2 at pH 7.4, to give a protein concentration of 2.5 mg/ml of tissue suspension. This preparation is used in subsequent binding assays with [^3 H]Oxytocin.
Binding of 3,5-[^3 H]Oxytocin ([^3 H]OT) to its receptors is done in microtiter plates using [^3 H]OT, at various concentrations, in an assay buffer of 50.0 mM Tris.HCl, pH 7.4 and containing 5.0 mM MgCl2, and a mixture of protease inhibitors: BSA, 0.1 mg; aprotinin, 1.0 mg; 1,10-phenanthroline, 2.0 mg; trypsin, 10.0 mg; and PMSF, 0.3 mg per 100 ml of buffer solution. Non-specific binding is determined in the presence of 1.0 uM unlabeled OT. The binding reaction is terminated after 60 min., at 220° C., by rapid filtration through glass fiber filters using a Brandel® cell harvester (Bio-medical Research and Development Laboratories, Inc., Gaithersburg, Md.). Competition experiments are conducted at equilibrium using 1.0 nM [^3 H]OT and varying the concentration of the displacing agents. The concentrations of agent displacing 50% of [^3 H]OT at its sites (IC50) are calculated by a computer assisted LUNDON-2 program (LUNDON SOFTWARE INC., Ohio, USA).

As to `O=C(Nc1ccc(C(=O)N2Cc3cccn3Cc3ccccc32)cc1)c1ccccc1-c1ccc(C(F)(F)F)cc1` [Example 324], the inhibition (commonly the percentage by which the read-out fell short of the control) at 1 µM at oxytocin receptors is 45%. Besides, the concentration for half-maximal inhibition (IC50) (in general, the point on the concentration scale where inhibition reaches its midpoint) in test [1] turned out to be 120 nM; on Rat Hepatic V1 Receptors, 420 nM.

Compound `Cc1ncccc1C(=O)Nc1ccc(C(=O)N2Cc3cccn3Cc3ccccc32)cc1` [Example 327, N-[4-(5H-Pyrrolo[2,1-c][1,4]benzodiazepin-10(11H)-ylcarbonyl)phenyl]-2-methylpyridine-3-carboxamide] displayed an inhibition at 1 µM on oxytocin receptors of 56%. The IC50 in test [1] is 28 nM; on Rat Hepatic V1 Receptors it was 350 nM.

`O=C(c1ccc(NC2CCc3ccccc32)nc1)N1Cc2cccn2Cc2ccccc21` (stereo not drawn) [Example 350, 10-[[6-(1-Indanylamino)-3-pyridinyl)carbonyl]-10,11-dihydro-5H-pyrrolo[2,1-c][1,4]benzodiazepine]: the inhibition at 10 µM at oxytocin receptors came to 95%. Further, the half-inhibitory concentration (IC50) was found to be 205 nM on oxytocin receptors, 34 nM in test [1] and 15 nM at Rat Hepatic V1 Receptors.

`Cc1ccc(F)cc1C(=O)Nc1ccc(C(=O)N2Cc3ccnn3Cc3ccccc32)cn1` [Example 208, N-[5-(4H-Pyrazolo[5,1-c][1,4]benzodiazepin-5(10H)-ylcarbonyl)-2-pyridinyl]-5-fluoro-2-methylbenzamide]: on oxytocin receptors, the inhibition at 10 µM was found to be 95%. Moreover, the half-maximal inhibitory concentration (IC50) worked out at 730 nM at oxytocin receptors, 11 nM in test [1] and 87 nM on Rat Hepatic V1 Receptors.

Turning to `O=C(Nc1ccc(C(=O)N2Cc3cccn3Cc3ccccc32)cn1)c1ccccc1Cl` [Example 6], the inhibition at 1 µM at oxytocin receptors came out at 90%. For the same compound, the IC50 was determined as 140 nM on oxytocin receptors, 1.8 nM in test [1] and 11 nM at Rat Hepatic V1 Receptors.

For `O=C(c1ccc(NCc2ccccc2)nc1)N1Cc2cccn2Cc2ccccc21` [Example 273, 10[[6-[(Phenylmethyl)amino]-3-pyridinyl]carbonyl]-10,11-dihydro-5H-pyrrolo[2,1-c][1,4]benzodiazepine], the inhibition at 2.5 µM on oxytocin receptors (dose 2.5 μM) came to 95%. Moreover, the IC50 on oxytocin receptors worked out at 56 nM; in test [1], 82 nM; at Rat Hepatic V1 Receptors, 190 nM.

Regarding `Cc1ncccc1C(=O)Nc1ccc(C(=O)N2Cc3cccn3Cc3ccccc32)c(Cl)c1` [Example 328, N-[4-(5H-Pyrrolo[2,1-c][1,4]benzodiazepin-10(11H)-yl-carbonyl)-3-chlorophenyl]-2-methyl-pyridine-3-carboxamide], the inhibition at 10 µM at oxytocin receptors was 85%. Also, the IC50 worked out at 570 nM on oxytocin receptors, 19 nM in test [1] and 3300 nM on Rat Hepatic V1 Receptors.

Consider `O=C(Nc1ccc(C(=O)N2Cc3cccn3Cc3ccccc32)cc1)c1cccnc1Cl` [Example 333, N-[4-(5H-Pyrrolo[2,1-c][1,4]benzodiazepin-10(11H)-ylcarbonyl)phenyl]-2-chloropyridine-3-carboxamide], for which, on oxytocin receptors, the inhibition at 10 µM came out at 98%. The figures for the 50% inhibitory concentration (IC50) (on oxytocin receptors; in test [1]; on Rat Hepatic V1 Receptors) were 880 nM, 410 nM and 250 nM, respectively.

These data come from patent US5753648A, “Tricyclic benzazepine vasopressin antagonists” (American Cyanamid Company, priority 1996, dated 1998).
